From ChEMBL document CHEMBL5131450, “Diaryl triazenes inhibit cytochrome P450 1A1 and 1B1 more strongly than aryl morpholino triazenes” (Bioorg Med Chem Lett, 2022)

Experiments:
Assay type in all cases: ADME
[1] = biological target: T1, {'v': 'CYP1A1', 'o': 'p', 'q': 'Inhibition of CYP1A1 (unknown origin)'} (Homo sapiens, UniProt P04798); experiment: Inhibition of CYP1A1 (unknown origin) assessed as remaining enzyme activity relative to control
T1 sequence (P04798 whole entry): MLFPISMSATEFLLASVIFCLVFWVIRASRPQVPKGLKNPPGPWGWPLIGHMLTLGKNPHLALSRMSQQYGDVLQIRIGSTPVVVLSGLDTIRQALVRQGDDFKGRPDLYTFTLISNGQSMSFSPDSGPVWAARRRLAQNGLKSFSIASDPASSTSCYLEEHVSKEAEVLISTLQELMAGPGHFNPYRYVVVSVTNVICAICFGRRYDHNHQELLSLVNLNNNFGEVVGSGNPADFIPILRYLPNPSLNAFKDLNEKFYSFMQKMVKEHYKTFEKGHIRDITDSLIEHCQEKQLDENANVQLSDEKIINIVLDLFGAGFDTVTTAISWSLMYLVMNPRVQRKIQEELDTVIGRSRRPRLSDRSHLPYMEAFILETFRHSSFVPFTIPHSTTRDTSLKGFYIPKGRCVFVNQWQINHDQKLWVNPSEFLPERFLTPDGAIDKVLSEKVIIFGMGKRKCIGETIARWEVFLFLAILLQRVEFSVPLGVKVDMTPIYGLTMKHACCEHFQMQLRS

[2] = biological target: T2, {'v': 'CYP1B1', 'o': 'p', 'q': 'Inhibition of CYP1B1 (unknown origin)'} (Homo sapiens, UniProt Q16678); experiment: Inhibition of CYP1B1 (unknown origin) assessed as remaining enzyme activity relative to control
T2 sequence (Q16678 whole entry): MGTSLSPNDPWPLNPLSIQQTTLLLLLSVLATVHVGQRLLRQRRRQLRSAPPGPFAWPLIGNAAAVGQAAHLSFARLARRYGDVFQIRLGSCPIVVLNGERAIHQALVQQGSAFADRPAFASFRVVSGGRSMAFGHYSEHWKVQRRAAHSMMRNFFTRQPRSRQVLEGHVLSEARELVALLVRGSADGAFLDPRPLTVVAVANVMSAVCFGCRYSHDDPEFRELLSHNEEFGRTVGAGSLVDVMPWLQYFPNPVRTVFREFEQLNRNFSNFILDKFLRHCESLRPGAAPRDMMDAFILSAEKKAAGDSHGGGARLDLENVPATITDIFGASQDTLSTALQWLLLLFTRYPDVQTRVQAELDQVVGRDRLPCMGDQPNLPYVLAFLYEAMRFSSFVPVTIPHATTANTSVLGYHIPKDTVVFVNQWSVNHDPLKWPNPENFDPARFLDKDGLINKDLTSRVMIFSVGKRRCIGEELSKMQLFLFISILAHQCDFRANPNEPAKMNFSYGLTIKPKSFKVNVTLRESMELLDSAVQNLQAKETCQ

Cytochrome P450 1B1 = biological target: T3, Cytochrome P450 1B1 (Homo sapiens, UniProt Q16678); experiment: Inhibition of CYP1B1 (unknown origin)
T3 sequence (Q16678 whole entry): T2 sequence (Q16678 whole entry)

Cytochrome P450 1A1 = biological target: T4, Cytochrome P450 1A1 (Homo sapiens, UniProt P04798); experiment: Inhibition of CYP1A1 (unknown origin)
T4 sequence (P04798 whole entry): T1 sequence (P04798 whole entry)

| activity [1] | activity [2] | IC50 (Cytochrome P450 1B1) | IC50 (Cytochrome P450 1A1) | Structure (SMILES) |
| --- | --- | --- | --- | --- |
| 96% | 8% | 0.74 µM |  | N#Cc1ccc(/N=N/Nc2ccc(C#N)cc2)cc1 |
| 21% | 9% | 0.051 µM | 3 µM | Brc1ccc(/N=N/Nc2ccc(Br)cc2)cc1 |
| 33% | 19% | 0.59 µM | 4 µM | CC(=O)c1ccc(/N=N/Nc2ccc(C(C)=O)cc2)cc1 |

| Structure (SMILES) | activity [1] | activity [2] | IC50 (Cytochrome P450 1B1) | IC50 (Cytochrome P450 1A1) |
| --- | --- | --- | --- | --- |
| c1ccc(N=NNc2ccccc2)cc1 | 9% | 4% | 2 µM | 8 µM |
